From patent US8183296B2, “Pesticide phenyloxy substituted phenylamidine derivatives” (Bayer Cropscience AG, priority 2005, dated 2012) come the findings set out here.

The test system of series [1] is Puccinia recondita f. Sp. tritici. Put plainly: In vivo preventive test on Puccinia recondita f. Sp. tritici (wheat brown rust). The note with it: topical, 240 h, 1000 ppm of active ingredient, evaluated 10 days after inoculation, read-out: efficacy. The protocol:
In Vivo Preventive Test on Puccinia recondita f. Sp. tritici (Wheat Brown Rust)
(§1) To produce a suitable preparation of active compound, 1 part by weight of active compound is mixed with the stated amounts of solvent and emulsifier, and the concentrate is diluted with water to the desired concentration.
To test for preventive activity, young plants are […]. After the spray coating has dried on, the plants are sprayed with the preparation of active compound at the stated rate of application. The plants remain for 24 hours in an incubation cabinet at 20° C. and a relative atmospheric humidity of 100%.
The plants are placed in a greenhouse at a temperature of approximately 20° C. and a relative atmospheric humidity of approximately 80% to promote the development of rust pustules.
The test is evaluated 10 days after the inoculation. 0% means an efficacy which corresponds to that of the control, while an efficacy of 100% means that no disease is observed.

The test system of the next series is Podosphaera leucotricha. Put plainly: In vivo protective test on Podosphaera leucotricha (apples). The following applies: topical, 240 h, 100 ppm of active ingredient, evaluated 10 days after inoculation, read-out: efficacy. An excerpt: In Vivo Protective Test on Podosphaera leucotricha (Apples) [table] […] To test for protective activity, young plants are sprayed with the preparation of active compound at the stated rate of application. After the spray coating has dried on, the plants are inoculated with an aqueous spore suspension of the causal agent of apple mildew (Podosphaera leucotricha).

Series [2] can be described thus: logP by HPLC on reversed-phase column (C 18), EEC Directive 79/831 Annex V.A8. It is filed as physicochemical. The following applies: reversed-phase HPLC column (C 18), C 18, 40° C., 0.1% aqueous formic acid and acetonitrile, read-out: logPa. The protocol: Temperature: 40° C.; Mobile phases: 0.1% aqueous formic acid and acetonitrile; linear gradient from 10% acetonitrile to 90% acetonitrile.
Calibration was carried out using unbranched alkan-2-ones (comprising 3 to 16 carbon atoms) with known logP values (determination of the logP values by the retention times using linear interpolation between two successive alkanones).

Series [3] relates to Erysiphe graminis f.sp. hordei. Nature of the series: In vivo preventive test on Erysiphe graminis (powdery mildew on barley). The following applies: Blumeria graminis, topical, 168 h, 1000 ppm of active ingredient, evaluated 7 days after inoculation, read-out: efficacy. As for the experimental part: In Vivo Preventive Test on Erysiphe gramini (Powdery Mildew on Barley)
To produce a suitable preparation of active compound, 1 part by weight of active compound or active compound combination is mixed with the stated amounts of solvent and emulsifier, and the concentrate is diluted with water to the desired concentration.
To test for preventive activity, young plants are sprayed with the preparation of active compound or active compound combination at the stated rate of application.
After the spray coating has dried on, the plants are dusted with spores of Erysiphe graminis f.sp. hordei
The plants are placed in a greenhouse at a temperature of approximately 20° C. and a relative atmospheric humidity of approximately 80% to promote the development of mildew pustules.
(§2) The test is evaluated 7 days after the inoculation. 0% means an efficacy which corresponds to that of the control, while an efficacy of 100% means that no disease is observed.

In a further series the test system is Sphaerotheca fuliginea. Nature of the series: In vivo protective test on Sphaerotheca fuliginea (cucumbers). The following applies: Podosphaera fuliginea, topical, 168 h, 100 ppm of active ingredient, evaluated 7 days after inoculation, read-out: efficacy. The protocol: In Vivo Protective Test on Sahaerotheca fuliginea (Cucumbers)
as §1
To test for protect activity, young plants are sprayed with the preparation of active compound at the stated rate of application. After the spray coating has dried on, the plants are inoculated with an aqueous spore suspension of Sphaerotheca fuliginea. The plants are then placed in a greenhouse at approximately 23° C. and a relative atmospheric humidity of approximately 70%.
as §2

For a further series, the system named is Alternaria solani. Nature of the series: In vivo protective test on Alternaria solani (leaf spot of tomato). The following applies: topical, 168 h, 500 ppm of active ingredient, evaluated 7 days after inoculation, read-out: efficacy. As for the experimental part:
In Vivo Protective Test on Alternaria solani (Leaf Spot of Tomato)
as §1
To test for protective activity, young plants are sprayed with the preparation of active compound at the stated rate of application. After the spray coating has dried on, the plants are inoculated with an aqueous spore suspension of Alternatia solani. The plants remain for one day in an incubation cabinet at approximately 20° C. and a relative atmospheric humidity of 100%. Then the plants are placed in an incubation cabinet at approximately 20° C. and a relative atmospheric humidity of 96%.
The test is evaluated 7 days after the inoculation. 0% means an efficacy which corresponds to that of the control while an efficacy of 100% means that no disease is observed.

For the next series, the system named is Aedes aegypti larvae. Put plainly: In vivo protective test on Aedes aegypti (AEDSAE U). As for the experimental part: In Vivo Protective Test on Aedes Aegypti (AEDSAE U)
To produce a suitable preparation of the active compound, the active compound is mixed with the stated amount of solvent, and the concentrate is diluted with staining water to the desired concentration.
Aedes aegypti larvae are pipetted with a preparation of active ingredient of the desired concentration.
After the specified period of time, mortality in % is determined. 100% means that all larvae have been killed, a 0% means that none of the larvae have been killed.

Series [4] has as its system eggs of cotton bollworm (Heliothis virescens). Put plainly: In vivo protective test on Heliothis virescens (HELIVI U). The following applies: soybean leaf sections infested with Heliothis virescens eggs. The source says:
In Vivo Protective Test on Heliothis virescens (HELIVI U)
To produce a suitable preparation of the active compound, 1 part by weight of active compound is mixed with the stated amount of solvent and emulsifier, and the concentrate is dilutes with emulsifier-containing water to the desired concentration.
Soybean (Glycine max.) leaf sections are sprayed with a preparation of the active ingredient of the desired concentration. Once dry, the leaf sections are infested with eggs of cotton bollworm (Heliotis virescens).
After the specified period of time, mortality in % is determined. 100% means that all eggs have been killed and 0% means that none of the eggs have been killed.

In series [5] the test system is mosquito larvae (Aedes aegypti). Nature of the series: In vivo protective test on Aedes aegypti (AEDSAE MO). The following applies: Aedes aegypti third larvae. As for the experimental part: In Vivo Protective Test on Aedes aegypti (AEDSAE MO)
To produce a suitable preparation of active compound, 1 part by weight of active compound is mixed with the stated amount of solvent, and the concentrate is diluted with water to the desired concentration.
10 to 20 third mosquito larvae (Aedes aegypti) are added to the well and incubated.
After the specified period of time, mortality in % is determined. 100% means that all of the larvae have been killed; 0% means that none of the larvae have been killed.

Turning to `CCN(C)/C=N/c1cc(C)c(Oc2ccc(Cl)c(C(C)C)c2)cc1C` [Example 3], the pest or weed control at 1000 ppm in series [1] and in series [3] was not below 70% throughout. Moreover, the pest or weed control at 100 ppm in the series on Podosphaera leucotricha and in the series with Sphaerotheca fuliginea was not below 70% each time. The chromatographic logP in series [2] was 2.75. Besides, the pest or weed control at 500 ppm in the series with Alternaria solani was not below 70%. Besides, in the series on Aedes aegypti larvae, the “activity (mortality of larvae)” value is on record as “good activity”.
For the compound `Cc1cc(Oc2ccc(Br)c(C(C)C)c2)c(C)cc1/N=C/N(C)C(C)C` [Example 18], the pest or weed control at 1000 ppm in series [1] and in series [3] was not below 70% in each case. For the same compound, the pest or weed control at 100 ppm in the series on Podosphaera leucotricha and in the series on Sphaerotheca fuliginea was not below 70% throughout. In series [4], the “activity (mortality of eggs)” value is given as “good activity”. Besides, the chromatographic logP in [2] is 3.34. Besides, in series [5], the “activity (mortality of larvae)” value is “good activity”. Moreover, in the series on Alternaria solani, the pest or weed control at 500 ppm was not below 70%.
